This is an account of results in PMC4220016, “The binding characteristics and orientation of a novel radioligand with distinct properties at 5-HT3A and 5-HT3AB receptors” (Neuropharmacology, 2014).

Where two headings read alike, the source gives them in different places.

Test [1] deals with T1, 5-HT3A receptors (Homo sapiens, UniProt P46098).
T1 sequence (P46098 24-478): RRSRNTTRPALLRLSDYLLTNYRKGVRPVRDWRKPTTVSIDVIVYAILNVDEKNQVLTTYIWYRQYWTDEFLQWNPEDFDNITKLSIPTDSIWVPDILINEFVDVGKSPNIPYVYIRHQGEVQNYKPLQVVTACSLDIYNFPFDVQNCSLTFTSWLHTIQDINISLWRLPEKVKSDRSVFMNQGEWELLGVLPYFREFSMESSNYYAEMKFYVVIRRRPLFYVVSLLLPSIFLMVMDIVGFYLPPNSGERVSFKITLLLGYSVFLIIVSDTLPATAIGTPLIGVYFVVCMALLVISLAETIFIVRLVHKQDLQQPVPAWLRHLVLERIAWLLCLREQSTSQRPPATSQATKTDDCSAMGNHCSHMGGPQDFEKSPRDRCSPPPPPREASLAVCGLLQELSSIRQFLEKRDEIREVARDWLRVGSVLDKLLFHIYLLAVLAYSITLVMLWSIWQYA
The test is described as follows: biochemical. In kind it is binding. On the set-up: expressed in transfected cells; host or cells: HEK 293.

Test [2] deals with T2, 5-HT3A receptor Y234C (Homo sapiens, UniProt P46098, Y229C).
T2 construct: expressed in transfected cells; host or cells: HEK 293
The test is described as follows: Saturation binding of [^3H]VUF10166 at 5-HT3A receptor mutant. The note with it: Loop C, read-out: Kd (nM) Mean ± SEM. The protocol: (§1) Mutagenesis was performed using the QuikChange method (Agilent Technologies Inc., California, USA) on human 5-HT3A cDNA (accession number: P46098) cloned into pcDNA3.1 (Invitrogen, Paisley, UK). Cysteine residues were substituted for amino acids throughout each of the binding loops A–E (Fig. 1). To facilitate comparisons with previous work, we use the numbering of the equivalent residues in the mouse 5-HT3A subunit; for human numbering 5 should be subtracted from each residue number.
(§2) All data were analysed using GraphPad Prism 4.03.

The target of test [3] is T3, 5-HT3A receptor N232C (Homo sapiens, UniProt P46098, N227C).
T3 construct: expressed in transfected cells; host or cells: HEK 293
Described as above. The note with it: N232C, Loop C; read-out: Kd (nM) Mean ± SEM. Here is the method:
as §1, §2

For test [4], the target named is T4, 5-HT3A receptor I139C (Homo sapiens, UniProt P46098, I134C).
T4 construct: expressed in transfected cells; host or cells: HEK 293
The test is described as above. The note with it: I139C, Loop E; read-out: Kd (nM) Mean ± SEM. Here is the method: as §1, §2

Test [5] concerns the target T5, 5-HT3A receptor Y141C (Homo sapiens, UniProt P46098, Y136C).
T5 construct: expressed in transfected cells; host or cells: HEK 293
The test is described as above. The note with it: Loop E, read-out: Kd (nM) Mean ± SEM. Here is the method:
as §1, §2

Test [6] deals with T6, 5-HT3A receptor T181C (Homo sapiens, UniProt P46098, T176C/T181C).
T6 construct: expressed in transfected cells; host or cells: HEK 293
The description is as above. The note with it: Loop B, read-out: Kd (nM) Mean ± SEM. Here is the method: as §1, §2

Test [7] concerns the target T7, 5-HT3A receptor S114C (Homo sapiens, UniProt P46098, S109C).
T7 construct: expressed in transfected cells; host or cells: HEK 293
The test is described as above. The note with it: S114C; read-out: Kd (nM) Mean ± SEM. The protocol: as §1, §2

The target of test [8] is T8, 5-HT3A receptor R92C (Homo sapiens, UniProt P46098, R87C).
T8 construct: expressed in transfected cells; host or cells: HEK 293
The description is as above. The note with it: R92C, Loop D; read-out: Kd (nM) Mean ± SEM. Here is the method:
as §1, §2

In test [9] the target is T9, 5-HT3A receptor R58C (Homo sapiens, UniProt P46098, R53C).
T9 construct: expressed in transfected cells; host or cells: HEK 293
The description is as above. The note with it: read-out: Kd (nM) Mean ± SEM. The protocol:
as §1, §2

T6 sequence (P46098 24-478 T176C/T181C): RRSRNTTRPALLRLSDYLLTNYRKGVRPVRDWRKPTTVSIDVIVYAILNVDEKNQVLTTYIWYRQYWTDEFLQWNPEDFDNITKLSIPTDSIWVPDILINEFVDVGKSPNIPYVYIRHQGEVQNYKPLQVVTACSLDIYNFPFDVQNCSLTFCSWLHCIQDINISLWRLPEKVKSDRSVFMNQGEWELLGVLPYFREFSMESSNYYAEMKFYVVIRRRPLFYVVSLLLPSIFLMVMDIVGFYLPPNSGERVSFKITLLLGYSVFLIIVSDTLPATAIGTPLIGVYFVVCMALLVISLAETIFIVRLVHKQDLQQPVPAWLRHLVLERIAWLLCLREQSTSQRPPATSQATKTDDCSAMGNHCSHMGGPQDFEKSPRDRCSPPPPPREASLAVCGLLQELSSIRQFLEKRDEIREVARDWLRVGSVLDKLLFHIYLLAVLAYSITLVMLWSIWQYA
T9 sequence (P46098 24-478 R53C): as the sequence (P46098 24-478 T176C/T181C) above, with R30C, C153T, C158T counted along it
T3 sequence (P46098 24-478 N227C): as the sequence (P46098 24-478 T176C/T181C) above, with C153T, C158T, N204C counted along it
T8 sequence (P46098 24-478 R87C): as the sequence (P46098 24-478 T176C/T181C) above, with R64C, C153T, C158T counted along it
T7 sequence (P46098 24-478 S109C): as the sequence (P46098 24-478 T176C/T181C) above, with S86C, C153T, C158T counted along it
T5 sequence (P46098 24-478 Y136C): as the sequence (P46098 24-478 T176C/T181C) above, with Y113C, C153T, C158T counted along it
T4 sequence (P46098 24-478 I134C): as the sequence (P46098 24-478 T176C/T181C) above, with I111C, C153T, C158T counted along it
T2 sequence (P46098 24-478 Y229C): as the sequence (P46098 24-478 T176C/T181C) above, with C153T, C158T, Y206C counted along it

Consider `CN1CCN(c2nc3ccccc3nc2Cl)CC1` [[^3H]VUF10166] [2-chloro-3-(4-[^3H]methylpiperazin-1-yl)quinoxaline], for which the Kd in test [1] (5-HT3A, tritiated ligand, transfected HEK 293 cells, 0 °C, read-out: Kd (nM) saturation) is 0.18 nM; in test [1] (Wild Type, Table 5 series, read-out: Kd (nM) Mean ± SEM), 0.21 ± 0.04 nM; in test [2], over 10 nM; in test [3] it was 1.9 ± 0.36 nM; in test [4], 1.55 ± 0.15 nM; in test [5] it was over 10 nM. For the same compound, the Kd was over 10 nM in test [6], 0.21 ± 0.09 nM in test [7], 0.88 ± 0.19 nM in test [8] and over 10 nM in [9].
